Data from the OPERA property sets (Mansouri et al. 2018).
Where a SMILES comes first, the peptide text is derived from it.

Point of comparison: `CC1=C2C3OC(=O)C(C)C3C(O)C(O)C2(C)C=CC1=O` (centres undefined), logP -0.7. Against it:
- OCCCNc1ncnc2c1ncn2C1OC(CO)C(O)C1O (centres undefined) — within 0.2 log units, -0.86
- CC(=NNC(=O)c1ccc(O)cc1)c1cnccn1 — higher, 1.9
- CC(C)CC(=O)OCC(=O)C1(O)C(C)CC2C3CCC4=CC(=O)C=CC4(C)C3(F)C(O)CC21C (centres undefined) — higher, 3.8
- Cc1c(C)c2occc2c2oc(=O)ccc12 — higher, 2.84
- COc1cccc2c1CCC(N)C2C (centres undefined) — higher, 2.26
- Nc1nnnn1-c1ccc(Cl)c(Cl)c1 — higher, 2.06
- CC(=O)OCOC(=O)C(C)c1cccc(C(=O)c2ccccc2)c1 (centres undefined) — higher, 3.4
- NC1=NCC(COc2ccc(-c3ccccc3)cc2)O1 (centres undefined) — higher, 2.8
- Nc1nnnn1-c1ccc(Cl)cc1Cl — higher, 1.62
- Cc1cc2c(ccc3c(C)c(C)c(=O)n(C)c32)o1 — higher, 3.54
- c1ccc2c(c1)Cc1ncccc1-2 — higher, 2.59
- O=C1CCC(=O)N1c1c(Cl)cccc1Cl — higher, 0.57
- c1cc2ccc1CCc1ccc(cc1)CC2 — higher, 4.33
- CCCCN(CCCC)C1CCc2c(OC)cccc2C1C (centres undefined) — higher, 5.61
- Cc1nccc2c1[nH]c1cc(O)ccc12 — higher, 2.84
- c1nc2nc[nH]c(N3CCC3)c-2n1 — higher, 0.87
- CC(=O)OC(C)(C)C1CCC2(C)CCCC(C)(O)C2C1 (centres undefined) — higher, 3.8
- C#CC(C)(C)NCC(O)CON=C(C1CC1)C1CC1 (centres undefined) — higher, 1.6
- CC(C)CC(N)C(=O)NC(CC(C)C)C(=O)NC(Cc1ccc(O)cc1)C(=O)O (stereo not drawn) (H-Leu-Leu-Tyr-OH; configuration not given here) — lower, -1.34
- COc1cccc(NC(=O)OCCN2CCCCC2)c1 — higher, 3.32
- CC(C)NC(=NC#N)NS(=O)(=O)c1cnccc1NC1CCCCCCCCCCC1 — higher, 4.51
- O=c1nc2[nH]nc(-c3ccccc3)cc-2c(=O)[nH]1 — higher, 1.56
- CCCCNc1ncnc2nc[nH]c12 — higher, 2
- CC(C)C(NC(=O)C(Cc1ccccc1)NC(=O)CNC(=O)CNC(=O)C(N)Cc1c[nH]c2ccccc12)C(=O)O (centres undefined) (H-WGGFV-OH; configuration not given here) — higher, -0.44
- COC(=O)C(C)=CC1C(C(=O)OCc2ccccc2)C1(C)C (centres undefined) — higher, 4.4
- CCCC1C(=O)N(CCN(C)C)c2ccccc2CC1c1ccc(OC)cc1 (centres undefined) — higher, 5.6
- CC(=O)Nc1ccc(F)cc1F — higher, 1.5
- CSc1ncc([N+](=O)[O-])n1C — higher, 0.94
- CC(NC(=O)C(Cc1ccccc1)NC(=O)C(N)Cc1c[nH]c2ccccc12)C(=O)O (stereo not drawn) (H-Trp-Phe-Ala-OH; configuration not given here) — lower, -1
- CC(C)C(=O)OCC(=O)C1(O)C(C)CC2C3CCC4=CC(=O)C=CC4(C)C3(F)C(O)CC21C (centres undefined) — higher, 3.4
- COc1ccc(C2Cc3cc(OC)ccc3N(CCN(C)C)C(=O)C2OC(C)=O)cc1 (centres undefined) — higher, 3.2
- CCC(C)C(N)C(=O)NC(C)C(=O)NC(C)C(=O)NC(C(=O)O)C(C)CC (centres undefined) (H-IAAI-OH; configuration not given here) — lower, -2.82
- CCCCC(O)C(CCCCOc1cccc2ccccc12)n1cncn1 (centres undefined) — higher, 4.31
- CCOC(=O)C1=C(C)NC(C)=C(C(=O)OC)C1c1ccccc1OCOC (centres undefined) — higher, 3.78
- CC(C)CNC(=O)N1C(=O)N(C)CC1O (centres undefined) — higher, 1.32
- CN1CCN(Cc2cnccc2Cl)C1=N[N+](=O)[O-] — higher, 0.26
- c1ccc(N2CCN(CCn3nc4ccccc4n3)CC2)cc1 — higher, 3.34
- Clc1ccc(-c2cnn(-c3ccccn3)c2)cc1 — higher, 4.3
- CCCC(=NOCC)C1=C(O)CC(C)(C2CC2)OC1=O (centres undefined) — higher, 3.28
- CCCC(=NOCC)C1=C(O)CC2(CCC(CC(C)(C)C)CC2)OC1=O (centres undefined) — higher, 5.3
- CC1OC(OC2C(C)OC(OC3C(C)OC(OC4CCC5(C)C(CCC6C5CCC5(C)C(C7=CC(=O)OC7)C(OC=O)CC65O)C4)CC3OC=O)CC2OC=O)CC(OC=O)C1OC=O (centres undefined) — higher, 3.16
- CON(C)C(=O)Nc1cccc(C#N)c1 — higher, 1.33
- Nc1nc(NC2CC2)c2ncn([C@@H]3C=C[C@@H](CO)C3)c2n1 — higher, 1.22
- CSCCC(N)C(=O)NC(Cc1ccc(O)cc1)C(=O)O (stereo not drawn) (H-Met-Tyr-OH; configuration not given here) — lower, -2.03
- COC(=O)C(C)NP(=O)(OCC1C=CC(n2cc(C)c(=O)[nH]c2=O)O1)Oc1ccc(Cl)cc1 (centres undefined) — higher, 1.43
- CC(C)=CC1C(C(=O)OCc2cccc(S(C)(=O)=O)c2)C1(C)C (centres undefined) — higher, 3.83
- Cc1ccccc1Nc1ccncc1S(=O)(=O)NC(=O)NC1CCCCC1 — higher, 4.35
- COc1ccc(C2Cc3c(OC)cccc3N(CCN(C)C)C(=O)C2C)cc1 (centres undefined) — higher, 4.6
- COc1ccc(CCNCC(O)COc2ccc(OCc3ncc[nH]3)cc2)cc1OC (centres undefined) — higher, 2.6
- Cc1cc2c(ccc3cc(C)c(=O)oc32)o1 — higher, 2.97
- CC(C)C(C)NC(CO)C(O)c1ccccc1 (centres undefined) — higher, 1.61
- Oc1ccc(CNc2ncnc3nc[nH]c23)cc1 — higher, 1.55
- O=c1[nH]c2cc(Cl)c(Cl)c([N+](=O)[O-])c2[nH]c1=O — higher, 0.21
- CC(=O)c1ccc(Cl)cc1O — higher, 2.97
- CC(C)C(N)C(=O)N1CCCC1C(=O)NCC(=O)NC(C(=O)O)C(C)C (centres undefined) (H-VPGV-OH; configuration not given here) — lower, -2.83
- C=CC(=O)Oc1ccccc1 — higher, 1.94
- CC(N)C(=O)NC(Cc1ccccc1)C(=O)NCC(=O)NC(C(=O)NC(Cc1ccccc1)C(=O)O)C(C)C (centres undefined) (H-AFGVF-OH; configuration not given here) — within 0.2 log units, -0.59
- CCCN(CCC)C1CCc2ccc(O)cc2C1 (centres undefined) — higher, 3.75
- O=C1NC(c2ccccc2)(c2ccccc2)C(=O)N1CO — higher, 2.23
- O=C(NC(Cc1c[nH]c2ccccc12)C(=O)O)OCC1c2ccccc2-c2ccccc21 (centres undefined) — higher, 4.93
- NC1=NCC(CN2CCC(c3ccccc3)CC2)O1 (centres undefined) — higher, 1.96
- CC(C)NCC(O)COc1ccc(-c2ncc[nH]2)cc1 (centres undefined) — higher, 1.4
- COCC(O)Cn1c(Br)cnc1[N+](=O)[O-] (centres undefined) — higher, 0.16
- CCC(C)C(N)C(=O)N1CCCC1C(=O)O (stereo not drawn) (H-Ile-Pro-OH; configuration not given here) — lower, -1.79
- C=C1C=CCC(C)=CCC1 — higher, 4.17
- CCOc1ccc(NC(=O)OCCN2CCCCC2)cc1 — higher, 3.41
- c1ccc(CCCc2ccccc2)cc1 — higher, 3.43
- CC(=O)c1c2ccccc2cc2ccccc12 — higher, 3.6
- NC(Cc1c[nH]c2ccccc12)C(=O)NC(Cc1ccccc1)C(=O)O (centres undefined) — higher, -0.47
- O=C1Nc2ccc3cc4ccccc4nc3c2CO1 — higher, 1.64
- CNc1ccc2cc3ccc4c(c3nc2c1CO)COCN4 — higher, 1.65
- O=c1ccc(/C=C/c2ccc(-n3ccnc3)cc2)n[nH]1 — higher, 1.21
- Cc1ccc(Cl)c(Cc2ccc(Cl)cc2Cl)c1 — higher, 6.38
- Cc1cc(=O)[nH]c2c1cc(C)c1occ(C)c12 — higher, 3.13
- Cc1ccc(Cc2c[nH]cn2)c(C)c1 — higher, 2.7
- O=C1c2ccccc2-c2nnccc21 — higher, 1.22
- C1CCSC1 — higher, 1.61
- C=C(C)C(=O)OCCCCCCCC(C)C — higher, 5.28
- N#Cc1cccc(Cc2ncccn2)c1 — higher, 1.46
- O=C1c2c(O)cccc2C(=CNc2ccccc2)c2cccc(O)c21 — higher, 4.96
- O=c1cc(-c2cccc(Cl)c2)oc2ccccc12 — higher, 3.91
- CC#CC(=O)c1c(C)nc2c3c(c(C(=O)N(C)C)cn12)CCC(c1ccccc1)O3 (centres undefined) — higher, 3.4
- CCCCC(O)C(CCCCOc1ccc(F)cc1)n1cncn1 (centres undefined) — higher, 3.38
- COC(=O)C(C)(C)S(=O)(=O)c1ccc([N+](=O)[O-])cc1 — higher, 1.38
- Cc1cc2ccc(=O)oc2c2c(C)coc12 — higher, 2.88
- O=C(NC1CCCCCC1)NS(=O)(=O)c1cnccc1NC1CCCCCC1 — higher, 4.96
- CCCN(CC)CC(=O)Nc1c(C)cccc1C — higher, 2.74
- NC(Cc1c[nH]c2ccccc12)C(=O)NC(Cc1c[nH]c2ccccc12)C(=O)NC(Cc1c[nH]c2ccccc12)C(=O)O (stereo not drawn) (H-Trp-Trp-Trp-OH; configuration not given here) — higher, 0.66
- CCOC(=O)C1=C(C)NC(C)=C(C(=O)OCC)C1c1cccc2c1OCO2 — higher, 4.32
- Cc1ccc(CO)c(C=NNC(=O)c2ccc([N+](=O)[O-])cc2)c1O — higher, 3.03
- C=C1CCCC2(C)CCC(C(C)(C)O)CC12 (centres undefined) — higher, 4.64
- COC(=O)C(C)NP(=O)(OCC1C=CC(n2cc(C)c(=O)[nH]c2=O)O1)Oc1ccccc1 (centres undefined) — higher, 1.04
- Cn1nc(C(F)(F)F)n(-c2ccccc2)c1=S — higher, 2.58
- CC(C)(C)Nc1nc(N)nc(O)n1 — higher, 2.07
- COc1ccc(C2Cc3c(cccc3C(F)(F)F)N(CCN(C)C)C(=O)C2O)cc1 (centres undefined) — higher, 4.1
- NC(Cc1ccc(O)cc1)C(=O)NCC(=O)NC(Cc1ccccc1)C(=O)O (stereo not drawn) (H-Tyr-Gly-Phe-OH; configuration not given here) — lower, -1.86
- CCN(CC)CC(=O)Nc1ccccc1 — higher, 2.49
- CC(=O)c1cc(F)c(Cl)cc1Cl — higher, 3.4
- CC(C)CC(N)C(=O)NC(C)C(=O)NC(CC(C)C)C(=O)O (stereo not drawn) (H-Leu-Ala-Leu-OH; configuration not given here) — lower, -2.03
- Nc1cccc(Nc2ccccc2C(=O)O)c1 — higher, 2.99
- Clc1ccccc1N1CCN(CCCOn2nnc3ccccc32)CC1 — higher, 4.1
- CCOC(=O)c1cccc2c1CC(c1ccc(OC)cc1)C(OC(C)=O)C(=O)N2CCN(C)C (centres undefined) — higher, 4.2
- Nc1ccc2cc3ccccc3nc2c1CO — higher, 1.77
- CC(=O)Oc1cc(OC(C)CCCc2ccccc2)cc2c1C1CC(O)CCC1C(C)N2 (centres undefined) — higher, 5.7
- CCCCOc1cccc(NC(=O)OCCN2CCCCC2)c1 — higher, 5.04
- CC1=CCCC(C)C12CCC(C(C)(C)O)C2 (centres undefined) — higher, 4.59
- CCNc1nc(O)nc(NC(C)(C)C)n1 — higher, 3.53
- COC(=O)C(C)=CC1C(C(=O)OCc2cccc(Oc3ccccc3)c2)C1(C)C (centres undefined) — higher, 6.48
- Brc1ccc(Br)c(N=C2NCCN2)c1 — higher, 2.71
- Clc1cc(Cl)c(-c2c(Cl)ccc(Cl)c2Cl)c(Cl)c1 — higher, 6.75
- CCON=C(CC)C1=C(O)CC(c2cccc(Oc3ccc(Cl)c(Cl)c3)c2)CC1=O (centres undefined) — higher, 6.32
- CC(C)NC(=NC#N)NS(=O)(=O)c1cnccc1NC1CCCCCC1 — higher, 2.07
- CC(C)NC(=NC#N)NS(=O)(=O)c1cnccc1NC1CCCC1 — higher, 0.98
- O=C(O)CCC(=O)OC1Cc2c(O)cc(O)cc2OC1c1ccc(O)c(O)c1 (centres undefined) — higher, 1.41
- CCCCOc1ccccc1NC(=O)OCCN1CCCCC1 — higher, 4.79
- CSCCC(N)C(=O)NC(C(=O)O)C(C)C (stereo not drawn) (H-Met-Val-OH; configuration not given here) — lower, -2.53
- Cc1nc2c3c(c(C(=O)N(C)C)cn2c1C)CCC(c1ccc(F)cc1)O3 (centres undefined) — higher, 3.5
- CSCC[C@H](N)C(=O)N1CCC[C@H]1C(=O)O (H-Met-Pro-OH) — lower, -2.52
